Reference: patent US20030097692A1, “Plants with imidazolinone-resistant ALS” (priority 2000, published 2003)

System: Arabidopsis seedlings
Assay: Dose-response of imazethapyr spray on 7-day-old Arabidopsis seedlings (foliar damage)
Format: in vivo, Arabidopsis thaliana
Conditions: repeated dose-response experiments, spray application, scored for foliar damage at 16 days post-treatment
Experimental: EMS-mutagenized M2 generation Arabidopsis thaliana (cv. Col-0) seeds were obtained from Lehle Seeds, Round Rock, Texas under catalog number M2E02-02. Flats were seeded to provide approximately one million ems-mutagenized seeds. The seeded flats were then watered by sub-irrigation, covered with transparent plastic domes, and maintained at 4° C. and 70% relative humidity for 4 days in the dark. At the end of this period the growth chamber conditions were reset to 21° C., 70% relative humidity under a 16 hour photoperiod, with soil-surface light intensity adjusted to approximately 150 uEinsteins/m^2/s. The flats were maintained under these conditions for seven days prior to imazethapyr, an imidazolinone treatments. The plastic domes were removed 2 days before the treatments to acclimate the plants to ambient humidity.
Based on repeated dose-response experiments using 7-day-old Arabidopsis seedlings grown under the conditions described above, it was determined that the I100 for imazethapyr was approximately 0.035 lbs. active ingredient per acre (a.i./acre). EMS-mutagenized seedlings were screened at a rate equivalent to approximately twice the 1100 value, or 0.07 lbs. a.i./acre. […] Seedlings were then returned to the growth chamber, and scored for foliar damage at 16 days post-treatment.

In the case of CCc1cnc(C2=NC(C)(C(C)C)C(=O)N2)c(C(=O)O)c1 (stereo not shown) [imazethapyr, 2-[4,5-dihydro-4-methyl-4-(1-methylethyl)-5-oxo-1H-imidazol-2-yl]-5-ethyl-3-pyridinecarboxylic acid], the I100 is reported as “approximately 0.035 lbs. active ingredient per acre”.
